The source of these data is US11872238B2, “Nutritional composition for use to enhance attention and/or reduce impulsivity” (SOCIETE DES PRODUITS NESTLE S.A., priority 2017, dated 2024).

Data set [1] relates to mouse pups. The data set can be described thus: Cross-fostering study of WT and St6Gal1 KO (6SL KO) mouse pups reared to WT or KO dams, with cognitive tests (T-maze, pre-pulse inhibition, Barnes maze, attentional set-shifting) in adulthood. It is filed as in vivo. Particulars: mouse pups receiving milk absent of 6′-SL, compared with pups receiving milk comprising 6′-SL; evaluated as adults. The text has this:
(§1) This effects were observed on a background of no changes in term of neurodevelopment evaluated by the onset and strength of reflexes using the Fox scale.
Adult wild-type (WT) B6.129 and heterozygous (HZ) B6.129-St6gal1^tm2Jxm breeding pairs (four males and four females and three males and four females, respectively) were purchased from a commercial breeder (The Jackson Laboratory). Upon arrival, same-sex mice were housed in same-sex groups of 2-3 in type-1 polycarbonate cages (33.0×13.0×14.0 cm) equipped with sawdust bedding, an enrichment bag (Mucedola, Settimo Milanese, Italy), metal top and ad libitum water and food pellets (Mucedola, Settimo Milanese, Italy). Mice were maintained on a reversed 12-h-light-dark cycle (light on at 7:00 PM) in an air-conditioned room (temperature 21±1° C. and relative humidity 60±10%). Two weeks after arrival, breeding triads (one male, two females) were formed. After two weeks of mating, male mice were removed and females were housed individually in standard type-1 cages. Females were checked daily for delivery and the day in which they gave birth was designated as postnatal day (PND) 0. Apart from cage cleaning once a week, dams and their offspring were kept undisturbed until weaning (on PND 25). […]
The aforementioned subjects have then been evaluated for neurodevelopmental milestones, cognitive capabilities (inc. attention) as outlined in figure two. […]

The subject of data set [2] is mouse pups. As to the kind of experiment: Neurodevelopmental milestones: onset and strength of reflexes on the Fox scale. The class given is in vivo. Particulars: mouse pups receiving milk absent of 6′-SL, compared with pups receiving milk comprising 6′-SL. The method, then:
as §1
On PND3, PND7, and PND12 mice were evaluated for the onset of neurodevelopmental milestones through the administration of Fox scales. The latter consist of a series of rapid tests to evaluate the maturity of a series of reflexes: righting (capability of mice to turn over with all four paws on the ground when placed on its back); grasping (the mouse is placed on a wire-mesh grid which is progressively tilted until the subject harmlessly falls on a soft surface, positioned 2 cm below the grid); cliff aversion (which measures the capability of mice to withdraw from a perceived visual cliff). Furthermore, pups' bodyweight and body length were constantly monitored throughout development.

For `CC(=O)N[C@H]1[C@H]([C@H](O)[C@H](O)CO)O[C@@](OC[C@H]2O[C@@H](O[C@H]3[C@H](O)[C@@H](O)C(O)O[C@@H]3CO)[C@H](O)[C@@H](O)[C@H]2O)(C(=O)O)C[C@@H]1O` (stereo partly drawn) [6′-sialyllactose, (6R)-5-Acetamido-3,5-dideoxy-6-[(1R,2R)-1,2,3-trihydroxypropyl]-β-L-threo-hex-2-ulopyranonosyl-(2->6)-β-D-galactopyranosyl-(1->4)-D-glucopyranose], in the data set on mouse pups [1], the attention entry was “decreased attention” and the impulsivity entry is “increased impulsivity”. The “neurodevelopment evaluated by the onset and strength of reflexes using the Fox scale” value in the data set with mouse pups [2] is recorded as “no changes”.
